Experimental data reported in EP2826473A1, “NOVEL USE OF PATCHOULOL” (Chengdu Huasun Group Inc., Ltd., priority 2012, dated 2013).
Counter-ions that a name gives are not always drawn. Like-named read-outs stand apart in the source and are kept apart here.

What was measured:
Format in all cases: cell-based
[1] = tested on: Staphylococcus epidermidis MSSE; test: in vitro bacteriostatic activity, agar dilution MIC
[2] = tested on: Staphylococcus aureus MSSA; test: as above; settings: Staphylococcus aureus, MSSA
Klebsiella pneumonia E^- = test: as above
Klebsiella pneumonia = test: in vitro bacteriostatic activity, agar dilution MIC, quality control strain and summary; settings: Klebsiella pneumoniae, ATCC700603; Klebsiella pneumonia ATCC 700603; read-out: MIC
[3] = tested on: Staphylococcus epidermidis MRSE; test: in vitro bacteriostatic activity, agar dilution MIC
Enterococcus faecalis = test: as above; settings: Enterococcus faecalis, read-out: MIC
Enterococcus faecium = test: as above; settings: Enterococcus faecium, read-out: MIC
Klebsiella pneumonia E^+ = test: as above; settings: Klebsiella pneumoniae
Staphylococcus aureus = test: in vitro bacteriostatic activity, agar dilution MIC, quality control strains; settings: ATCC25923; Staphylococcus aureus ATCC 25923; read-out: MIC
Streptococcus pneumoniae = test: in vitro bacteriostatic activity, agar dilution MIC
[4] = tested on: Staphylococcus aureus MRSA; test: as above; settings: MRSA
[5] = tested on: Staphylococcus epidermidis ATCC 12228; test: in vitro bacteriostatic activity, agar dilution MIC, quality control strain; settings: Staphylococcus epidermidis, ATCC12228
Escherichia coli = test: in vitro bacteriostatic activity, agar dilution MIC, quality control strain and summary; settings: ATCC25922; Escherichia coli ATCC 25922; read-out: MIC
Escherichia coli E^- = test: in vitro bacteriostatic activity, agar dilution MIC

## C[C@H]1COc2c(N3CCN(C)CC3)c(F)cc3c(=O)c(C(=O)O)cn1c23 [levofloxacin, Levofloxacin hydrochloride]
[1]; Staphylococcus epidermidis
  MIC: 0.125 µg/mL
[1]; Staphylococcus epidermidis MSSE 12-12
  MIC: 0.125 µg/mL
[1]; Staphylococcus epidermidis MSSE 12-16
  MIC: 0.125 µg/mL
[1]; Staphylococcus epidermidis, Staphylococcus epidermidis MSSE 10-43, read-out: MIC
  MIC: 0.1 µg/mL
[1]; Staphylococcus epidermidis, Staphylococcus epidermidis MSSE 10-44, read-out: MIC
  MIC: 3.1 µg/mL
[1]; Staphylococcus epidermidis, Staphylococcus epidermidis MSSE 12-13, read-out: MIC
  MIC: 0.5 µg/mL
[1]; Staphylococcus epidermidis, Staphylococcus epidermidis MSSE 12-14, read-out: MIC
  MIC: 0.5 µg/mL
[1]; Staphylococcus epidermidis, Staphylococcus epidermidis MSSE 12-15, read-out: MIC
  MIC: 0.5 µg/mL
[1]; Staphylococcus epidermidis, Staphylococcus epidermidis MSSE 12-17, read-out: MIC
  MIC: 0.5 µg/mL
[1]; Staphylococcus epidermidis, Staphylococcus epidermidis MSSE 12-18, read-out: MIC
  MIC: 1 µg/mL
[1]; Staphylococcus epidermidis, Staphylococcus epidermidis MSSE 12-19, read-out: MIC
  MIC: 0.5 µg/mL
[1]; Staphylococcus epidermidis, Staphylococcus epidermidis MSSE 12-20, read-out: MIC
  MIC: 1 µg/mL
[2]; Staphylococcus aureus MSSA 10-38, read-out: MIC
  MIC: 0.1 µg/mL
[2]; Staphylococcus aureus MSSA 10-40, read-out: MIC
  MIC: 0.1 µg/mL
[2]; Staphylococcus aureus MSSA 10-41, read-out: MIC
  MIC: 0.1 µg/mL
[2]; Staphylococcus aureus MSSA 12-11
  MIC: 0.125 µg/mL
[2]; Staphylococcus aureus MSSA 12-13
  MIC: 0.125 µg/mL
[2]; Staphylococcus aureus MSSA 12-14
  MIC: 0.125 µg/mL
[2]; Staphylococcus aureus MSSA 12-15
  MIC: 0.125 µg/mL
[2]; Staphylococcus aureus MSSA 12-16, read-out: MIC
  MIC: 0.06 µg/mL
[2]; Staphylococcus aureus MSSA 12-17, read-out: MIC
  MIC: 0.06 µg/mL
[2]; Staphylococcus aureus MSSA 12-18
  MIC: 0.125 µg/mL
[2]; Staphylococcus aureus MSSA 12-19, read-out: MIC
  MIC: 0.06 µg/mL
[2]; Staphylococcus aureus MSSA 12-20
  MIC: 0.125 µg/mL
[2]; Staphylococcus aureus MSSA 12-21
  MIC: 0.125 µg/mL
Klebsiella pneumonia E^-; Klebsiella pneumonia E^- 10-18
  MIC: 0.025 µg/mL
Klebsiella pneumonia E^-; Klebsiella pneumoniae, Klebsiella pneumonia E^- 10-16, read-out: MIC
  MIC: 0.025 µg/mL
Klebsiella pneumonia
  MIC: 0.39 µg/mL
[3]; Staphylococcus epidermidis MRSE 10-40, read-out: MIC
  MIC: 0.1 µg/mL
[3]; Staphylococcus epidermidis MRSE 10-44, read-out: MIC
  MIC: 3.1 µg/mL
Enterococcus faecalis; ATCC29212, Enterococcus faecalis ATCC 29212
  MIC: 0.25 µg/mL
Enterococcus faecalis; ATCC51299, Enterococcus faecalis (high endurance) ATCC 51299
  MIC: 0.25 µg/mL
Enterococcus faecalis; Enterococcus faecalis 12-11
  MIC: 16 µg/mL
Enterococcus faecalis; Enterococcus faecalis 12-12
  MIC: 32 µg/mL
Enterococcus faecalis; Enterococcus faecalis 12-13
  MIC: 8 µg/mL
Enterococcus faecalis; Enterococcus faecalis 12-14
  MIC: 64 µg/mL
Enterococcus faecalis; Enterococcus faecalis 12-17
  MIC: 0.5 µg/mL
Enterococcus faecalis; Enterococcus faecalis 12-18
  MIC: 0.5 µg/mL
Enterococcus faecalis; Enterococcus faecalis 12-19
  MIC: 32 µg/mL
Enterococcus faecalis; Enterococcus faecalis 12-20
  MIC: 4 µg/mL
Enterococcus faecalis; Enterococcus faecalis 12-21
  MIC: 4 µg/mL
Enterococcus faecalis; Enterococcus faecalis 12-22
  MIC: 8 µg/mL
Enterococcus faecium; ATCC33186, Enterococcus faecium ATCC 33186
  MIC: 1 µg/mL
Enterococcus faecium; Enterococcus faecium 12-7
  MIC: 32 µg/mL
Enterococcus faecium; Enterococcus faecium 12-8
  MIC: 64 µg/mL
Enterococcus faecium; Enterococcus faecium 12-9
  MIC: 32 µg/mL
Enterococcus faecium; Enterococcus faecium 12-10
  MIC: 32 µg/mL
Enterococcus faecium; Enterococcus faecium 12-11
  MIC: 32 µg/mL
Enterococcus faecium; Enterococcus faecium 12-12
  MIC: 64 µg/mL
Enterococcus faecium; Enterococcus faecium 12-13
  MIC: 64 µg/mL
Enterococcus faecium; Enterococcus faecium 12-14
  MIC: 32 µg/mL
Enterococcus faecium; Enterococcus faecium 12-15
  MIC: 32 µg/mL
Enterococcus faecium; Enterococcus faecium 12-16
  MIC: 64 µg/mL
Klebsiella pneumonia E^+; Klebsiella pneumonia E^+ 10-2
  MIC: 12.5 µg/mL
Klebsiella pneumonia E^+; Klebsiella pneumonia E^+ 10-6
  MIC: 0.0125 µg/mL
Staphylococcus aureus
  MIC: 0.1 µg/mL
Streptococcus pneumoniae; ATCC49619, Streptococcus pneumonia ATCC 49619
  MIC: 0.1 µg/mL
Streptococcus pneumoniae; Streptococcus pneumonia 12-6
  MIC: 25 µg/mL
Streptococcus pneumoniae; Streptococcus pneumonia 12-7
  MIC: 12.5 µg/mL
Streptococcus pneumoniae; Streptococcus pneumonia 12-8
  MIC: 25 µg/mL
Streptococcus pneumoniae; Streptococcus pneumonia 12-9
  MIC: 25 µg/mL
Streptococcus pneumoniae; Streptococcus pneumonia 12-10
  MIC: 12.5 µg/mL
Streptococcus pneumoniae; Streptococcus pneumoniae 12-1
  MIC: 12.5 µg/mL
Streptococcus pneumoniae; Streptococcus pneumoniae 12-2
  MIC: 25 µg/mL
Streptococcus pneumoniae; Streptococcus pneumoniae 12-3
  MIC: 25 µg/mL
Streptococcus pneumoniae; Streptococcus pneumoniae 12-4
  MIC: 25 µg/mL
Streptococcus pneumoniae; Streptococcus pneumoniae 12-5
  MIC: 25 µg/mL
[4]; Staphylococcus aureus MRSA 10-31, read-out: MIC
  MIC: 25 µg/mL
[4]; Staphylococcus aureus MRSA 10-32, read-out: MIC
  MIC: 12.5 µg/mL
[5]
  MIC: 0.125 µg/mL
Escherichia coli
  MIC: < 0.006 µg/mL
Escherichia coli E^-; Escherichia coli E^- 10-12
  MIC: 0.1 µg/mL
Escherichia coli E^-; Escherichia coli E^- 10-18
  MIC: 12.5 µg/mL
